Results on five compounds are retold here after the NIST ThermoML archive (doi:10.1021/je800021r).

For this series the following is noted: Liquid, Ebulliometric method (Recirculating still).

Several values for one entry are separate records, joined by “and”; a condition that tells them apart may be missing. Identical values can stand only once. Numbers after ± are expanded uncertainties.

The vapor or sublimation pressure is the equilibrium pressure above the liquid or solid. On to `CC(C)(C)O` [2-methylpropan-2-ol], for which the “vapor or sublimation pressure” value (364.5 K) turned out to be 142.6 ± 1.5 kPa.

Consider `CC(C)C` [2-methylpropane], for which the “vapor or sublimation pressure” value is 1685.6 ± 7.4 kPa (364.5 K); 1686.4 ± 7.4 kPa and 1686.3 ± 7.4 kPa (364.51 K); 1686.3 ± 7.4 kPa (364.52 K).

Consider `CCC(C)O` (configuration not stated) [butan-2-ol], for which the “vapor or sublimation pressure” value (364.51 K) was 74.1 ± 1.4 kPa.

Take `CO` [methanol]: under “364.51 K”, the “vapor or sublimation pressure” value came out at 267.5 ± 1.8 kPa.

Take `CC(C)O` [propan-2-ol]: the “vapor or sublimation pressure” value (364.51 K) amounted to 144.2 ± 1.5 kPa.
